Substitutions are numbered along the chain they refer to. pIC50: −log10 of the molar value. Read-outs that look alike come from different tables or passages of the source.
Columns and labels:
ALK1/ACVRL1 = ALK1/ACVRL1 (Homo sapiens, UniProt P37023); assay: Kinase assay (33P-ATP filter-binding), ALK1; assay type: biochemical
Experimental: (§1) The kinase assays were carried out briefly as follows. Substrate was prepared in Base Reaction Buffer (20 mM Hepes (pH 7.5), 10 mM MgCl2, 1 mM EGTA, 0.02% Brij35, 0.02 mg/ml BSA, 0.1 mM Na3VO4, 2 mM DTT, 1% DMSO). The indicated kinases was delivered into the substrate solution and allowed to gently mix. Next, the specific compound was delivered in DMSO into the kinase mixture by Acoustic technology (Echo550; nanoliter range), and allowed to incubate for 20 minutes at room temperature. Next, ^33P-ATP was delivered into the reaction mixture to initiate the reaction and allowed to incubate at room temperature. After 2 hours, the reactions were spotted onto P81 ion exchange paper and the kinase activity is detected by the filter-binding method.

ALK2/ACVR1 = target: T1, ALK2/ACVR1 (Homo sapiens, UniProt Q04771); assay: Kinase assay (33P-ATP filter-binding), ALK2; assay type: biochemical
T1 sequence (Q04771 21-509): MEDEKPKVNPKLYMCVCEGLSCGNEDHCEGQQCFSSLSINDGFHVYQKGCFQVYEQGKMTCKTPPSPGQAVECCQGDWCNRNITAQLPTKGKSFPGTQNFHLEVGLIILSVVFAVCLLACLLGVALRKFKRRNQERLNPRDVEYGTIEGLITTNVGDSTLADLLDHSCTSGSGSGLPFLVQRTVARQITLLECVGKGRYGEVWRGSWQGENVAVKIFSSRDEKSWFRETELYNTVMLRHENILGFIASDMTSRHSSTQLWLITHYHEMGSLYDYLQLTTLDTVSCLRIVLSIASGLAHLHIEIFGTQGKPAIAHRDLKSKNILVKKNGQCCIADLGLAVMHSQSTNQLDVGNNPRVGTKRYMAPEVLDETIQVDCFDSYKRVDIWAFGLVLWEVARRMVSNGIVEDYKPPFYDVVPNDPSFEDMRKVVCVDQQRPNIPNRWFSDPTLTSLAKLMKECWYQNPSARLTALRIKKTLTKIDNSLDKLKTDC
Experimental: as §1

ALK2 (Q207D) = target: T2, ALK2 (Q207D) (Homo sapiens, UniProt Q04771, Q207D); assay: Kinase assay (33P-ATP filter-binding), ALK2 Q207D; assay type: biochemical; settings: Q207D mutant, 20 mM; read-out: Kinase Selectivity ALK2 (Q207D, 20 mM)
T2 sequence (Q04771 21-509 Q207D): T1 sequence (Q04771 21-509) with Q187D
Experimental: as §1

ALK2 (R206H) = target: T3, ALK2 (R206H) (Homo sapiens, UniProt Q04771, R206H); assay: Kinase assay (33P-ATP filter-binding), ALK2 R206H; assay type: biochemical; settings: R206H mutant, 20 mM; read-out: Kinase Selectivity ALK2 (R206H, 20 mM)
T3 sequence (Q04771 21-509 R206H): T1 sequence (Q04771 21-509) with R186H
Experimental: as §1

ALK3/BMPR1A = ALK3/BMPR1A (Homo sapiens, UniProt P36894); assay: Kinase assay (33P-ATP filter-binding), ALK3; assay type: biochemical
Experimental: as §1

[1] = Intrinsic clearance, human; assay type: in vitro ADME; settings: human
[2] = Intrinsic clearance, mouse; assay type: in vitro ADME; settings: mouse
Protein binding, human = assay type: in vitro ADME
Protein binding, mouse = assay type: in vitro ADME
[3] = read-out: Kinase Selectivity ALK1/ACVRL1
[4] = 20 mM, read-out: Kinase Selectivity ALK2/ACVR1 (20 mM)
[5] = 1 mM, read-out: Kinase Selectivity ALK3/BMPR1A (1 mM)
[6] = CL-Hep, value in parentheses, read-out: Intrinsic Clearance Human (CL-Hep)
[7] = read-out: Intrinsic Clearance Human
[8] = CL-Hep, value in parentheses, read-out: Intrinsic Clearance Mouse (CL-Hep)
[9] = read-out: Intrinsic Clearance Mouse

Chain of ALK1/ACVRL1 (P37023 22-503): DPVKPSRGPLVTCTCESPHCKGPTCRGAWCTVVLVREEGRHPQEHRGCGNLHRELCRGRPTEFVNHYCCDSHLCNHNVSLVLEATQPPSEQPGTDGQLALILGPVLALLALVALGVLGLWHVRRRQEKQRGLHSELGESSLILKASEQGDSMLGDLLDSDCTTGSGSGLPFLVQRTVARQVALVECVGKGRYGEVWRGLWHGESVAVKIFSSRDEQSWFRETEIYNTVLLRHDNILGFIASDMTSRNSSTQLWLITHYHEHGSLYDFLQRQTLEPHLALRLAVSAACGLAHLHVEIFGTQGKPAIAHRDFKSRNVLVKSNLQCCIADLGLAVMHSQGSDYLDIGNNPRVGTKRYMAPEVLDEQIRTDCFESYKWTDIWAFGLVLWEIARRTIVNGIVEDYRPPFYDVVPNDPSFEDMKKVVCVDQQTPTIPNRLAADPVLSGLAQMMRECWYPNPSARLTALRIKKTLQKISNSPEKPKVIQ
Chain of ALK3/BMPR1A (P36894 24-532): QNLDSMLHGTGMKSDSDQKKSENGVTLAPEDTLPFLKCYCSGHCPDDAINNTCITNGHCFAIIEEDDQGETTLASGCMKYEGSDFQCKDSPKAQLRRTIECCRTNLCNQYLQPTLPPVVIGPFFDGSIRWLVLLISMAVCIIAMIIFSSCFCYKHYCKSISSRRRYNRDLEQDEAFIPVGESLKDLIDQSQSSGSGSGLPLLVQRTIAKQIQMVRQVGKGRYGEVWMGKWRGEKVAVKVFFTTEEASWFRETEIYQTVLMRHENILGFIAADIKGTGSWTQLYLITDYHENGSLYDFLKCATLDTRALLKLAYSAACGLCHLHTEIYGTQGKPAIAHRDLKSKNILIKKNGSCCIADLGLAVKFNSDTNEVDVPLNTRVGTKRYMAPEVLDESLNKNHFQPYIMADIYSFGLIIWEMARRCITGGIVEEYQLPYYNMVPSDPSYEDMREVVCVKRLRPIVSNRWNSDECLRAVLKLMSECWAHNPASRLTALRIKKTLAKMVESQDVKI

| SMILES | pIC50 (ALK1/ACVRL1; [3]) | pIC50 (ALK2/ACVR1; [4]) | pIC50 (ALK2 (Q207D)) | pIC50 (ALK2 (R206H)) | pIC50 (ALK3/BMPR1A; [5]) | CLint scaled [1, 6] | CLint scaled [1, 7] | CLint scaled [2, 8] | CLint scaled [2, 9] | Protein Binding (% Free) Human (Protein binding, human) | Protein Binding (% Free) Mouse (Protein binding, mouse) | pIC50 (ALK1/ACVRL1; Kinase Selectivity ALK1/ACVRL1) | pIC50 (ALK2/ACVR1) | pIC50 (ALK3/BMPR1A) |
| --- | --- | --- | --- | --- | --- | --- | --- | --- | --- | --- | --- | --- | --- | --- |
| Cc1cc(-c2cnc3cc(-c4ccc(C5C[C@@H](C)N[C@@H](C)C5)cc4)ccn23)c2cc(F)cc(F)c2n1 (stereo partly drawn) [Compound 1] | 6.06 | 7.27 | 7.17 | 7.22 | 7.55 | – | – | – | – | – | – | – | – | – |
| Cc1cc(-c2cnc3cc(-c4ccc(N5CCCC6(CCCN6)C5)cc4)ccn23)c2cc(F)cc(F)c2n1 (stereo not drawn) [Compound 2] | 6.03 | 6.83 | 6.94 | 6.89 | 7.35 | – | – | – | – | – | – | – | – | – |
| Cc1cc(-c2cnc3cc(-c4ccc(N5CCC6(CCCNC6)CC5)cc4)ccn23)c2cc(F)cc(F)c2n1 [Compound 3] | 4.99 | 5.96 | 6.00 | 5.95 | 6.48 | – | – | – | – | – | – | – | – | – |
| Cc1cc(-c2cnc3cc(-c4ccc(N5CCNC6(CCC6)C5)cc4)ccn23)c2cc(F)cc(F)c2n1 [Compound 4] | 6.41 | 7.54 | 7.62 | 7.59 | 8.60 | – | – | – | – | – | – | – | – | – |
| Cc1cc(-c2cnc3cc(-c4ccc(N5CCC6(CCNCC6)C5)cc4)ccn23)c2cc(F)cc(F)c2n1 [Compound 5] | 4.45 | 5.63 | 5.76 | 5.60 | 5.88 | – | – | – | – | – | – | – | – | – |
| Cc1cc(-c2cnc3cc(-c4ccc(N5CCC6(CCCNC6)C5)cc4)ccn23)c2cc(F)cc(F)c2n1 (stereo not drawn) [Compound 6] | 5.46 | 6.77 | 6.70 | 6.66 | 7.70 | – | – | – | – | – | – | – | – | – |
| Cc1cc(-c2cnc3cc(-c4ccc(N5CCC6(CCNC6)CC5)cc4)ccn23)c2cc(F)cc(F)c2n1 [Compound 7] | 5.23 | 6.11 | 6.13 | 5.97 | 6.36 | – | – | – | – | – | – | – | – | – |
| Cc1cc(-c2cnc3cc(-c4ccc(N5CCC6(CCC6)C5)cc4)ccn23)c2cc(F)cc(F)c2n1 [Compound 8] | < 4.30 | < 4.30 | < 4.30 | < 4.30 | 4.36 | – | – | – | – | – | – | – | – | – |
| Cc1cc(-c2cnc3cc(-c4ccc(N5CCC6(CCC6)CC5)cc4)ccn23)c2cc(F)cc(F)c2n1 [Compound 9] | < 4.30 | < 4.30 | < 4.30 | < 4.30 | 4.39 | – | – | – | – | – | – | – | – | – |
| Cc1cc(-c2cnc3cc(-c4ccc(C5COCCCN5)cc4)ccn23)c2cc(F)ccc2n1 (stereo not drawn) [Compound 10] | > 8.29 | > 8.29 | > 8.29 | > 8.29 | > 8.29 | 17.4 mL/min/kg | 139 mL/min/kg | 47.6 mL/min/kg | 101 mL/min/kg | 2.39 % Free | 1.91 % Free | – | – | – |
| Cc1cc(-c2cnc3cc(-c4ccc(C5COCCN5)cc4)ccn23)c2cc(F)ccc2n1 (stereo not drawn) [Compound 11] | 7.63 | – | – | – | > 8.29 | 17.4 mL/min/kg | – | – | – | 1.52 % Free | 3.23 % Free | – | – | – |
| Cc1cc(-c2cnc3cc(-c4ccc(C5COCCCN5)cc4)ccn23)c2cc(F)cc(F)c2n1 (stereo not drawn) [Compound 13] | 7.80 | > 8.29 | > 8.29 | > 8.29 | > 8.29 | 16.6 mL/min/kg | 97.2 mL/min/kg | < 32.9 mL/min/kg | < 49.5 mL/min/kg | 1.85 % Free | 2.3 % Free | – | – | – |
| O=S(=O)(F)Oc1ccc(-c2cnc3cc(-c4ccc(N5CCOCC5)cc4)ccn23)c2ccccc12 [Compound 38] | – | – | 4.99 | 4.82 | – | – | – | – | – | – | – | < 4.52 | < 4.52 | 4.64 |

Now from value to molecule, other results behind:

| pIC50 (ALK1/ACVRL1; [3]) | pIC50 (ALK2/ACVR1; [4]) | pIC50 (ALK2 (Q207D)) | pIC50 (ALK2 (R206H)) | pIC50 (ALK3/BMPR1A; [5]) | CLint scaled [1, 6] | CLint scaled [1, 7] | CLint scaled [2, 8] | CLint scaled [2, 9] | Protein Binding (% Free) Human (Protein binding, human) | Protein Binding (% Free) Mouse (Protein binding, mouse) | SMILES | pIC50 (ALK1/ACVRL1; Kinase Selectivity ALK1/ACVRL1) | pIC50 (ALK2/ACVR1) | pIC50 (ALK3/BMPR1A) |
| --- | --- | --- | --- | --- | --- | --- | --- | --- | --- | --- | --- | --- | --- | --- |
| > 8.29 | > 8.29 | > 8.29 | > 8.29 | > 8.29 | 16.5 mL/min/kg | 93 mL/min/kg | 50.3 mL/min/kg | 114 mL/min/kg | 0.76 % Free | 1.6 % Free | Cc1cc(-c2cnc3cc(-c4ccc(C5COC(C)CN5)cc4)ccn23)c2ccccc2n1 (stereo not drawn) [Compound 14] | – | – | – |
| 7.47 | > 8.29 | > 8.29 | > 8.29 | > 8.29 | 15.7 mL/min/kg | 74 mL/min/kg | 38.1 mL/min/kg | 66.3 mL/min/kg | 1.26 % Free | 1.01 % Free | Cc1cc(-c2cnc3cc(-c4ccc(C5COC(C)CN5)cc4)ccn23)c2cc(F)ccc2n1 (stereo not drawn) [Compound 15] | – | – | – |
| 7.85 | > 8.29 | > 8.29 | > 8.29 | > 8.29 | 15.9 mL/min/kg | 77.2 mL/min/kg | 53.3 mL/min/kg | 131 mL/min/kg | 3.74 % Free | 3.15 % Free | Cc1cc(-c2cnc3cc(-c4ccc(C5COC(C)CN5)cc4)ccn23)c2cc(F)cc(F)c2n1 (stereo not drawn) [Compound 19] | – | – | – |
| 7.64 | > 8.29 | > 8.29 | > 8.29 | > 8.29 | 17.1 mL/min/kg | 117 mL/min/kg | 50.2 mL/min/kg | 114 mL/min/kg | 4.01 % Free | 1.36 % Free | Cc1cc(-c2cnc3cc(-c4ccc(C5COCC(C)N5)cc4)ccn23)c2cc(F)ccc2n1 (stereo not drawn) [Compound 20] | – | – | – |
| > 8.29 | – | – | – | > 8.29 | 17.5 mL/min/kg | – | – | – | 3.05 % Free | 6.24 % Free | Cc1cc(-c2cnc3cc(-c4ccc(C5COCCN5)cc4)ccn23)c2ccccc2n1 (stereo not drawn) [Compound 21] | – | – | – |
| 5.90 | 7.24 | 6.89 | 7.23 | 8.28 | 14 mL/min/kg | 46.3 mL/min/kg | < 32.9 mL/min/kg | < 49.5 mL/min/kg | 0.75 % Free | 1.08 % Free | Cc1cc(-c2cnc3cc(N4CC5(CCNCC5)C4)ccn23)c2cc(F)cc(F)c2n1 [Compound 24] | – | – | – |
| 6.35 | 7.16 | 7.46 | 7.01 | 7.26 | – | – | – | – | – | – | c1cc(-c2cnc3cc(-c4ccc(C5CNCCN5)cc4)ccn23)ccn1 (stereo not drawn) [Compound 30] | – | – | – |
| 4.85 | 6.80 | 7.18 | 6.67 | 5.02 | – | – | – | – | – | – | c1ncc2scc(-c3cnc4cc(-c5ccc(C6CNCCN6)cc5)ccn34)c2n1 (stereo not drawn) [Compound 35] | – | – | – |

From US10745400B2, “Inhibition of BMP signaling, compounds, compositions and uses thereof” (Vanderbilt University, priority 2018, dated 2020)
